Test results reported in article PMC10853903 (Analytical Chemistry, 2024).

Biological target: agglutinin 120 from Ricinus communis (RCA120) (Ricinus communis, UniProt P06750)
Assay: biochemical
Assay type: binding

Compound: CO[C@@H]1O[C@H](CO)[C@H](O)[C@H](O)[C@H]1O [methyl-β-D-galactoside]
- Kd: 271 µM
